Assay results published in patent US12325696B2, “Indazole derivative, preparation method therefor, and pharmaceutical application thereof” (JIANGSU HENGRUI MEDICINE CO., LTD., priority 2019, dated 2025).

How the values were obtained:
[1] = system: estrogen receptor reporter gene; assay: Inhibition of estrogen receptor reporter gene activity (ERE-luc luciferase) in MCF7/ERE-luc cells; assay type: cell-based; settings: Homo sapiens, 0.1 nM β-estradiol, 20 hours, read-out: IC50 of inhibitory activity on the activity of the estrogen receptor reporter gene
Description: MCF7 cells MCF7/ERE-luc (ATCC, HTB-22) expressing the luciferase reporter gene ERE-luc (synthesized by GENEWIZ, Inc.) controlled by the estrogen receptor response element were cultured in MEM (GE Healthcare, SH30024.01) medium containing 10% fetal bovine serum and 500 µg/ml G418. On the first day of the experiment, MCF7/ERE-luc cells were seeded in a 96-well plate with incomplete MEM medium containing 10% fetal bovine serum treated with activated charcoal (BioSun, BS-0004-500) at a density of 30,000 cells/well (100 μl of cell suspension per well), and the plate was incubated in a cell incubator at 37° C. and 5% CO2 overnight. On the second day, 10 μl of β-estradiol (SIGMA, E2758-250MG) solution formulated with the above incomplete medium or test compound solution of different concentrations formulated with the above incomplete medium was added to each well, wherein the final concentration of β-estradiol was 0.1 nM, and the final concentrations of the compound were nine concentration points obtained by a 10-fold gradient dilution starting from 10 μM, a blank control containing 0.5% DMSO was set, and the plate was incubated in a cell incubator at 37° C. and 5% CO2 for 20 hours. On the third day, the 96-well plate was taken out, and 100 μl of ONE-Glo™ Luciferase Assay system (Promega, E6110) was added to each well to determine the activity of luciferase. The plate was left to stand at room temperature for 3 minutes until the cells were fully lysed, and the luminescence signal values were measured using a multi-label microplate reader (PerkinElmer, VICTOR 3). The IC50 values of the inhibitory activity of the compounds were calculated using Graphpad Prism software based on the concentrations and luminescence signal values of the compounds.
The inhibitory effect of the compounds of the present disclosure on the activity of the estrogen receptor reporter gene was determined by the above test. A graph of the chemiluminescence signal values versus the logarithmic concentrations of the compound was made using Graghpad Prism.

MCF7 cell = assay: Inhibition of proliferation of MCF7 cell (CellTiter-Glo, 144 hours); assay type: cell-based; settings: Homo sapiens; for IC50: MCF7, CellTiter-Glo, read-out: IC50 of the inhibitory effect on the proliferation of MCF7 cell; for Emax: MCF7 cell proliferation, read-out: Maximum inhibition
Description: (§1) MCF7 cells (ATCC, HTB-22) were cultured in MEM (GE Healthcare, SH30024.01) complete medium containing 10% fetal bovine serum. On the first day of the experiment, MCF7 cells were seeded in a 96-well plate with the complete medium at a density of 3,000 cells/well (100 μl of cell suspension per well), and the plate was incubated in a cell incubator at 37° C. and 5% CO2 overnight. On the second day, the medium in each well was replaced with 135 μl of MEM incomplete medium containing 2% fetal bovine serum. 15 μl of test compound solution of different concentrations formulated with the incomplete medium was added to each well, wherein the final concentrations of the compound were nine concentration points obtained by a 4-fold gradient dilution starting from 100 nM. A blank control containing 0.5% DMSO was set. The plate was incubated in a cell incubator at 37° C. and 5% CO2 for 144 hours. On the eighth day, the 96-well plate was taken out, and 150 μl of CellTiter-Glo® Luminescent Cell Viability Assay (Promega, G7573) was added to each well. The plate was left to stand at room temperature for 10 minutes, and the luminescence signal values were measured using a multi-label microplate reader (PerkinElmer, VICTOR 3). The IC50 values of the inhibitory activity of the compounds were calculated based on the concentrations and luminescence signal values of the compounds using Graphpad Prism software.
A graph of the chemiluminescence signal values versus the logarithmic concentrations of the compound was made using Graghpad Prism to obtain the IC50 values of the compound.

MCF7 D538G = assay: Inhibition of proliferation of MCF7 cell expressing ERα D538G mutant; assay type: cell-based; settings: Homo sapiens, 144 hours; for Emax: read-out: Maximum inhibition
Excerpt: (§2) The mutants ERα Y537S and ERα D538G of human estrogen receptor α (ERαs) protein were obtained by site-directed mutagenesis using the cDNA of wild-type ESR1 gene (Accession No. NM000125) as a template according to double-primer PCR. The primer sequences used for mutagenesis are as follows (the nucleotides underlined are the sites of mutagenesis):
(§3) The cDNA of mutant ESR1 was cloned into the target lentiviral vector pCDH-CMV-MCS-EF1-Puro (SBI, CD510B-1). The lentiviral plasmid with the mutant ESR1 gene sequence and the lentiviral packaging plasmids pVSV-G and pCMV-dR8.91 (SBI, LV500A-1) were transfected into HEK-293T cells (ATCC, CRL-3216) by Lipofectamine 3000 Transfection Reagent (ThermoFisher Scientific, Cat #L3000075). 48 hours after the transfection, the supernatant of the virus-containing DMEM high-glycemic medium (GE Healthcare, SH30243.01) containing 10% FBS was filtered, and ultracentrifuged to obtain the virus pellet. The virus pellet was resuspended in an appropriate amount of MEM medium (GE Healthcare, SH30024.01) containing 10% FBS, non-essential amino acids (SIGMA, M7145-100ML) and sodium pyruvate (SIGMA, S8636-100ML), and the resulting suspension was added to MCF7 cells (ATCC, HTB-22). Polybrene (SIGMA, H9268-5G) at a final concentration of 8 µg/ml was added, and the cells were incubated overnight. Two days after the transfection, […] puromycin (invitrogen, A11138-03) was added to the cell culture medium for resistance screening. After about two weeks, the MCF7 cell line capable of stably expressing ERαY537S and ERα D538G mutants was obtained.
as §1, with “MCF7 cells expressing ERα mutant were cultured” for “MCF7 cells (ATCC, HTB-22) were cultured”, “the experiment, the cells were” for “the experiment, MCF7 cells were”, “control containing 0.500 DMSO was” for “control containing 0.5% DMSO was”, “C. and […] for” for “C. and 5% CO2 for”, “and 150 of CellTiter-Glo®” for “and 150 μl of CellTiter-Glo®”

MCF7 ERαY537S = assay: Inhibition of proliferation of MCF7 cell expressing ERα Y537S mutant; assay type: cell-based; settings: Homo sapiens, 144 hours; for Emax: read-out: Maximum inhibition
Excerpt: as §2, §3
as §1, with “MCF7 cells expressing ERα mutant were cultured” for “MCF7 cells (ATCC, HTB-22) were cultured”, “the experiment, the cells were” for “the experiment, MCF7 cells were”, “control containing 0.500 DMSO was” for “control containing 0.5% DMSO was”, “C. and […] for” for “C. and 5% CO2 for”, “and 150 of CellTiter-Glo®” for “and 150 μl of CellTiter-Glo®”

[2] = biological target: estrogen receptor ERα wild-type (Homo sapiens (Human), UniProt P03372); assay: Covalent modification of ERα wild-type LBD by high-resolution mass spectrometry; assay type: binding; settings: after 24 hours; 2 μM protein, 10 μM compound, 4° C.
estrogen receptor ERα wild-type, sequence (P03372 296-554): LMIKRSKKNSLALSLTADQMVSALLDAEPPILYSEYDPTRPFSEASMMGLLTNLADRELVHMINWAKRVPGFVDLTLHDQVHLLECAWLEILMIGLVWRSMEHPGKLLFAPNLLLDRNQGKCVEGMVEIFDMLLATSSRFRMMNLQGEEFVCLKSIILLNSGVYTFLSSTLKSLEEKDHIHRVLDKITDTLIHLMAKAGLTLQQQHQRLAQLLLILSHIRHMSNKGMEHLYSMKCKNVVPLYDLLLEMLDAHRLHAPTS
Description: (§4) The ligand binding domain (LBD, aa296-554) of estrogen receptor ERα wild-type and ERα Y537S mutant-type was expressed in E. coli and purified. 2 μM ERα wild-type or ERα Y537S mutant-type protein and 10 μM compound were added to a buffer solution containing 50 mM Tris-HCl, pH7.5, 150 mM NaCl, 1 mM TCEP and 5% glycerol and mixed well. The solution was incubated at 4° C. for 24 hours, followed by high-resolution mass spectrometry (Agilent Technologies, Agilent Q-tof 6530) assay. Alternatively, 1 μM ERα wild-type or ERα Y537S mutant-type protein and 3 μM compound were added to a buffer solution containing 50 mM Tris-HCl, pH7.5, 150 mM NaCl, 1 mM TCEP and 5% glycerol and mixed well. The solution was incubated at 37° C. for 15 minutes, followed by high-resolution mass spectrometry assay. In the mass spectrometry assay results, the peak whose molecular weight is the sum of the molecular weight of the protein and compound is the product of covalent modification. The percentage of covalent modification is obtained by calculating the ratio of […] to total protein.

[3] = biological target: estrogen receptor ERα Y537S mutant-type (Homo sapiens (Human), UniProt P03372, Y537S); assay: Covalent modification of ERα Y537S mutant-type LBD by high-resolution mass spectrometry; assay type: binding; settings: after 24 hours; 2 μM protein, 10 μM compound, 4° C.
estrogen receptor ERα Y537S mutant-type, sequence (P03372 296-554 Y537S): as the sequence (P03372 296-554) above, with Y242S counted along it
Description: as §4

IC50 [1] [nM] | IC50 (MCF7 cell) [nM] | IC50 (MCF7 D538G) [nM] | IC50 (MCF7 ERαY537S) [nM] | Covalent modification effect on the estrogen receptor ERα wild-type [2] [%] | Covalent modification effect on the estrogen receptor ERα Y537S mutant-type [3] [%] | SMILES | Emax (MCF7 cell) [%] | Emax (MCF7 D538G) [%] | Emax (MCF7 ERαY537S) [%]
3 | 0.6 | 2 | 3 | 87 | 90 | O=C(/C=C/CNC1(COc2ccc(/C(=C(/CC(F)(F)F)c3ccccc3)c3ccc4[nH]nc(F)c4c3)cn2)CC1)N1CCCC1 [Example 2, (E)-1-(Pyrrolidin-1-yl)-4-((1-(((5-((Z)-4,4,4-trifluoro-1-(3-fluoro-1H-indazol-5-yl)-2-phenylbut-1-en-1-yl)pyridin-2-yl)oxy)methyl)cyclopropyl)amino)but-2-en-1-one] | 112 | 104 | 107
3 | 0.1 | 1 | 2 | 96 | 97 | CN(C)C(=O)/C=C/CNC1(COc2ccc(/C(=C(/CC(F)(F)F)c3ccccc3)c3ccc4[nH]nc(F)c4c3)cn2)CCCCC1 [Example 8, (E)-N,N-Dimethyl-4-((1-(((5-((Z)-4,4,4-trifluoro-1-(3-fluoro-1H-indazol-5-yl)-2-phenylbut-1-en-1-yl)pyridin-2-yl)oxy)methyl)cyclohexyl)amino)but-2-enamide] | 113 | 103 | 107
2 | 0.4 | 1 | 2 | 85 | 83 | O=C(/C=C/CN1CCC[C@@H](Oc2ccc(/C(=C(/CC(F)(F)F)c3ccccc3)c3ccc4[nH]nc(F)c4c3)cn2)C1)N1CCOCC1 [Example 12, (E)-1-Morpholino-4-((R)-3-((5-((Z)-4,4,4-trifluoro-1-(3-fluoro-1H-indazol-5-yl)-2-phenylbut-1-en-1-yl)pyridin-2-yl)oxy)piperidin-1-yl)but-2-en-1-one] | 108 | 96 | 104
6 | 1 | 5 | 8 | 98 | 99 | O=C(/C=C/CN1CCC[C@@H](Oc2ccc(/C(=C(/CC(F)(F)F)c3ccccc3)c3ccc4[nH]nc(F)c4c3)cn2)C1)N1CCNCC1 [Example 18, (E)-1-(Piperazin-1-yl)-4-((R)-3-((5-((Z)-4,4,4-trifluoro-1-(3-fluoro-1H-indazol-5-yl)-2-phenylbut-1-en-1-yl)pyridin-2-yl)oxy)piperidin-1-yl)but-2-en-1-one] | 100 | 104 | 92
4 | 1.1 | 3 | 6 |  |  | CN(C)C(=O)/C=C/CN[C@H]1CCN(c2ccc(/C(=C(/CC(F)(F)F)c3ccccc3)c3ccc4[nH]nc(F)c4c3)cn2)C1 [Example 35, (E)-N,N-Dimethyl-4-(((S)-1-(5-((Z)-4,4,4-trifluoro-1-(3-fluoro-1H-indazol-5-yl)-2-phenylbut-1-en-1-yl)pyridin-2-yl)pyrrolidin-3-yl)amino)but-2-enamide] | 105 | 104 | 97
5 | 0.5 | 2 | 3 |  |  | CN(C)C(=O)/C=C/CNC1CCN(c2ccc(/C(=C(/CC(F)(F)F)c3ccccc3)c3ccc4[nH]nc(F)c4c3)cn2)CC1 [Example 36, (E)-N,N-Dimethyl-4-((1-(5-((Z)-4,4,4-trifluoro-1-(3-fluoro-1H-indazol-5-yl)-2-phenylbut-1-en-1-yl)pyridin-2-yl)piperidin-4-yl)amino)but-2-enamide] | 104 | 99 | 100
8 | 0.8 | 2 | 3 |  |  | CN(C)C(=O)/C=C/CN(C)[C@H]1CCCN(c2ccc(/C(=C(/CC(F)(F)F)c3ccccc3)c3ccc4[nH]nc(F)c4c3)cn2)C1 [Example 37, (E)-N,N-Dimethyl-4-(methyl((S)-1-(5-((Z)-4,4,4-trifluoro-1-(3-fluoro-1H-indazol-5-yl)-2-phenylbut-1-en-1-yl)pyridin-2-yl)piperidin-3-yl)amino)but-2-enamide] | 98 | 101 | 86
